Values joined by “and” are separate entries in the source; they are usually repeats but may differ in a detail not shown here. Equal values may be shown once.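 In this assay, cells in 96-well plates receive the compound at five concentrations for 48 hours. Endpoints are linearly interpolated between the surrounding concentrations. GI50 = concentration required for 50% inhibition of growth. The concentration for full growth arrest is given as TGI.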
What was measured:
Experiment in all cases: NCI anticancer screen, dose series, 48 h
[1] = test system: A498 renal
[2] = test system: BT-549 breast
[3] = test system: HCC-2998 colon
[4] = test system: MCF7 breast
[5] = test system: MDA-MB-231 breast
[6] = test system: MOLT-4 leukemia
[7] = test system: NCI-H460 lung
[8] = test system: OVCAR-5 ovarian
[9] = test system: SF-295 CNS
[10] = test system: SNB-75 CNS
[11] = test system: SW-620 colon
[12] = test system: T-47D breast
[13] = test system: UACC-257 melanoma

SMILES	TGI [1]	TGI [2]	TGI [3]	TGI [4]	TGI [5]	TGI [6]	TGI [7]	TGI [8]	TGI [9]	TGI [10]	TGI [11]	TGI [12]	TGI [13]	GI50 [2]	GI50 [3]	GI50 [5]	GI50 [9]	GI50 [10]	GI50 [12]	GI50 [13]
Cc1cc(C)cc(Nc2cc(=O)[nH]c(=O)[nH]2)c1	> 100 µM	> 100 µM	> 100 µM	> 100 µM	> 100 µM	> 100 µM	> 100 µM	> 100 µM	> 100 µM	> 100 µM	> 100 µM	> 100 µM	> 100 µM							
Cc1ccn2c(=O)cc(-c3ccccc3)nc2c1		> 100 µM	> 100 µM	> 100 µM	> 100 µM	> 100 µM	> 100 µM	> 100 µM	> 100 µM	> 100 µM	> 100 µM	> 100 µM	> 100 µM							
Cc1ccc2nc(Cl)c(/C=N/N3C(=O)/C(=C/c4ccccc4S)N=C3c3ccccc3)cc2c1	> 100 µM	> 100 µM	> 100 µM	> 100 µM	> 100 µM	15.1 µM	> 100 µM	> 100 µM	84 µM	86.5 µM	> 100 µM	> 100 µM	> 100 µM							
CCOP(=O)(OCC)c1c(C(=O)OC)cc(=O)[nH]c1-c1ccc(C)cc1	53.8 µM	20.3 µM	33.5 µM	> 49.7 µM	76.3 µM	20.6 µM	43.4 µM	20.5 µM	40.9 µM	29.3 µM	23.5 µM	18.1 µM	30.1 µM							
CC(=O)c1ccc2c3c1[C@@H]1O[C@@H]1c1cccc(c1-3)[C@@H]1O[C@H]21	> 85.8 µM	35.1 µM		> 40.1 µM	42.9 µM	> 100 µM		34.7 µM	38.3 µM	34.5 µM	7.99 µM	23.7 µM	> 60.2 µM							
O=C1c2ccccc2-c2nc(-c3cccc([N+](=O)[O-])c3)nnc21		36.7 µM		> 100 µM	> 100 µM	> 100 µM	24.8 µM	50 µM	> 100 µM	59 µM	62.8 µM	> 100 µM	13.3 µM							
CCCSc1ccc2[nH]c(/N=C/c3ccco3)cc2c1	> 100 µM	> 100 µM		> 100 µM				> 100 µM	> 100 µM	> 100 µM	> 100 µM	> 100 µM	> 100 µM							
COc1cc(CNc2ccc(SC)cc2)cc(OC)c1OC	79.4 µM and 67.7 µM	> 100 µM	> 60 µM and 26.6 µM	> 100 µM	> 100 µM	> 100 µM	> 100 µM	> 92.1 µM and 87.3 µM	53.8 µM and 22.1 µM	86.3 µM and 65.5 µM	> 100 µM	> 100 µM and 69.8 µM	> 91.7 µM and 41.8 µM	9.13 µM	11 µM and 4.92 µM	15 µM and 6.23 µM	8.24 µM and 3.57 µM	15.7 µM and 6.28 µM	24.7 µM and 7.05 µM	24.9 µM and 9.7 µM
CCC(C#N)NC(=O)NC(C#N)CC (stereo not drawn)	> 100 µM	> 100 µM	> 100 µM	> 100 µM	> 100 µM	> 100 µM	> 100 µM	> 100 µM	> 100 µM		> 100 µM	> 100 µM	> 100 µM							
O=c1c2c([N+](=O)[O-])cccc2nc2[nH]c3ccccc3n12	> 75 µM	51.1 µM	52.2 µM	> 75 µM	31.7 µM	> 75 µM	> 75 µM	> 75 µM	> 75 µM		> 75 µM	63.4 µM	> 75 µM							
CCC1(C)N=C(c2cnccn2)NN1c1ccc(Cl)cc1 (stereo not drawn)	> 100 µM	> 100 µM		> 100 µM	> 100 µM	> 100 µM	> 100 µM	> 100 µM	> 100 µM	> 100 µM	> 100 µM	74.5 µM	99.3 µM							
CC1=NN2C(=N)/C(=C/c3ccco3)C(=O)N=C2S1	> 100 µM	> 100 µM	> 100 µM	> 100 µM	> 100 µM	> 100 µM	> 100 µM	> 100 µM	> 100 µM	> 100 µM	> 100 µM	> 100 µM	> 100 µM							
O=c1[nH]nc(Cc2ccc([N+](=O)[O-])cc2)n1CCO	> 100 µM	> 100 µM	> 100 µM	> 100 µM	> 100 µM		> 100 µM	> 100 µM	> 100 µM		> 100 µM	> 100 µM	> 100 µM							
N#Cc1c(-c2ccccc2)nc(-c2ccccc2)sc1=S	> 100 µM	> 100 µM	> 100 µM	> 100 µM	> 100 µM		> 100 µM	> 100 µM	> 100 µM	> 100 µM	> 100 µM	> 100 µM	> 100 µM							
O=C(OCC1OC2OC(c3ccccc3)(n3ccc4c([N+](=O)[O-])ccnc43)OC2C1OC(=O)c1ccccc1)c1ccccc1 (stereo not drawn)	> 100 µM	> 100 µM	> 100 µM	> 100 µM	> 100 µM	> 100 µM	> 100 µM	> 100 µM	> 100 µM		> 100 µM	> 100 µM	> 100 µM							
N#Cc1nc(-c2cccs2)oc1N	> 100 µM	> 100 µM	> 100 µM	> 100 µM	> 100 µM	> 100 µM	> 100 µM	> 100 µM	> 100 µM	> 100 µM	> 100 µM	> 100 µM	> 100 µM							
O=c1nc2c(c(-c3ccccc3Cl)[nH]1)COC/C2=C\c1ccccc1Cl	> 100 µM	> 100 µM	> 100 µM	> 100 µM	> 100 µM	> 100 µM	> 100 µM	> 100 µM	> 100 µM	> 100 µM	> 100 µM	> 100 µM	> 100 µM							
CC1CCOc2ccc(cc2)C=Nc2ccc(cc2)CCc2ccc(cc2)N=Cc2ccc(cc2)OCC1 (stereo not drawn)	> 100 µM	> 100 µM	> 100 µM	> 100 µM	> 100 µM	> 100 µM	> 100 µM	> 100 µM	> 100 µM	77.3 µM	> 100 µM		> 100 µM							
CN(C)c1ccc(C2SCC(=O)N2NS(=O)(=O)c2cccc(C(=O)O)c2)cc1 (stereo not drawn)		> 100 µM	> 100 µM	> 100 µM	> 100 µM	> 100 µM	> 100 µM	> 100 µM	> 100 µM	> 100 µM	> 100 µM	> 100 µM	> 100 µM							

SMILES	TGI [1]	TGI [2]	TGI [3]	TGI [4]	TGI [5]	TGI [6]	TGI [7]	TGI [8]	TGI [9]	TGI [10]	TGI [11]	TGI [12]	TGI [13]	GI50 [2]	GI50 [3]	GI50 [5]	GI50 [9]	GI50 [10]	GI50 [12]	GI50 [13]
C[C@H](N)C(=O)Nc1ccc(-c2nc3ccccc3s2)cc1	90 µM	> 100 µM	45.8 µM		36.5 µM	31.4 µM	34.8 µM	43.6 µM	33.9 µM	41.6 µM	31 µM	36 µM	> 100 µM							
CCn1nc2c3c(ncn3C(C)(C)O2)c1=O	> 100 µM	> 100 µM	> 100 µM	> 100 µM	> 100 µM	> 100 µM	> 100 µM	> 100 µM	> 100 µM		> 100 µM	> 100 µM	> 100 µM							
C1CNCCNCCN1	> 100 µM	> 100 µM	> 100 µM	> 100 µM	> 100 µM	> 100 µM	> 100 µM	> 100 µM	> 100 µM		> 100 µM	> 100 µM	> 100 µM							
Cc1cn(C2CC(n3cc(Cn4cc(Br)c(=O)[nH]c4=O)nn3)C(CO)O2)c(=O)[nH]c1=O (stereo not drawn)	> 100 µM	> 100 µM	> 100 µM	> 100 µM	> 100 µM	> 100 µM		> 100 µM	> 100 µM	> 100 µM	> 100 µM	> 100 µM	> 100 µM							
CC1(CF)SCc2nc3ccccc3n21 (stereo not drawn)	> 100 µM	> 100 µM	> 100 µM	> 100 µM	> 100 µM		> 100 µM	> 100 µM	> 100 µM	> 100 µM	> 100 µM	> 100 µM	> 100 µM							
Nc1cccc(Nc2nc3ccccc3nc2NS(=O)(=O)c2ccccc2)c1		44.9 µM	33.9 µM	> 100 µM	36 µM	48.9 µM	71.1 µM	> 100 µM	> 100 µM	> 100 µM	44.2 µM	> 100 µM	> 100 µM							
C/C=C/C(O)P1(=O)N(Cc2ccccc2)[C@@H]2CCCC[C@H]2N1Cc1ccccc1 (stereo partly drawn)		> 25 µM	> 25 µM	> 25 µM	> 25 µM	> 25 µM	> 25 µM	> 25 µM	> 25 µM	> 25 µM	> 25 µM	> 25 µM	> 25 µM							
CCN1C(=O)C(=C/C=C/c2ccc([N+](=O)[O-])cc2)C(=O)N(CC)C1=S		32.5 µM	> 100 µM	52.5 µM	47 µM	> 100 µM	> 100 µM	> 100 µM	> 100 µM		36.8 µM	> 100 µM	32.2 µM							
C=C1C(=O)CC2C(=O)C(C)(O)CC/C=C(\C)C(=O)CC12 (stereo not drawn)	> 100 µM	35.5 µM	> 100 µM	36.6 µM	74.7 µM	17.1 µM	> 100 µM	47.2 µM	> 100 µM	> 100 µM	> 34.2 µM		55.5 µM							
COC(=O)C1=CC(=O)OC1(OO)c1ccccc1 (stereo not drawn)		> 100 µM	> 100 µM	> 100 µM	> 100 µM	> 100 µM	> 100 µM	> 100 µM	> 100 µM	> 100 µM	> 100 µM	> 100 µM	> 100 µM							
COc1cc(C2SCC(=O)N2c2ccc(-c3ccc(-n4c(-c5ccccc5)nc5ccccc5c4=O)cc3)cc2)cc(OC)c1OC (stereo not drawn)	> 100 µM	55.4 µM	> 100 µM	> 100 µM	> 100 µM	> 100 µM	> 100 µM	> 100 µM			> 100 µM	> 100 µM								
CC1Cn2c(nc3ccccc32)NC1=O (stereo not drawn)	> 100 µM	> 100 µM		> 100 µM	> 100 µM	> 100 µM	> 100 µM	> 100 µM	> 100 µM	> 100 µM	> 100 µM	> 100 µM	> 100 µM							
CN(C)Cc1cc(C(=O)/C=C/c2ccccc2Cl)cc(CN(C)C)c1O	29.5 µM	20 µM	36.6 µM	26.1 µM	24.6 µM	59.8 µM	18.5 µM	40.2 µM	28.3 µM	19.7 µM	17 µM		30.1 µM							
Cc1ccc(-c2cc(N)n(-c3nc4c(c(=O)n(C)c(=O)n4C)n3C)n2)cc1	> 100 µM	> 100 µM	> 100 µM	> 100 µM	> 100 µM	> 100 µM	> 100 µM	> 100 µM	> 100 µM			> 100 µM	> 100 µM							
CC1=COC(C)(C=C(C#N)C#N)CC1 (stereo not drawn)	> 100 µM		> 100 µM	> 100 µM	> 100 µM	> 100 µM	> 100 µM	> 100 µM	> 100 µM	> 100 µM	> 100 µM	> 100 µM	> 100 µM							
NC(=O)NNC(=O)c1nc[nH]c1[N+](=O)[O-]	> 100 µM	> 100 µM	> 100 µM	> 100 µM	> 100 µM	> 100 µM	> 100 µM	> 100 µM		> 100 µM	> 100 µM	> 100 µM	> 100 µM							
CCOC(=O)/C=C(/C(=O)OCC)n1ccc(N)nc1=O		> 100 µM	> 100 µM	> 100 µM	> 100 µM	> 100 µM	> 100 µM	> 100 µM	> 100 µM	> 100 µM	> 100 µM	> 100 µM	> 100 µM							
N#C/C(=C\n1ccc(=O)[nH]c1=S)C(N)=O	> 100 µM		> 100 µM	> 100 µM	> 100 µM	> 100 µM	> 100 µM	> 100 µM	> 100 µM	> 100 µM	> 100 µM	> 100 µM	> 100 µM							

Reference: PubChem BioAssay (NCI)
